Data reported in patent publication US20110020463A1, “THERAPEUTIC AGENT FOR FIBROMYALGIA SYNDROME AND THERAPEUTIC AGENT FOR PAIN CAUSED BY MUSCLE SPASM” (priority 2008, published 2011).

What was measured:
[1] = test system: right blepharism; details: human, in vivo
[2] = test system: fibromyalgia syndrome; details: human, in vivo

botulinum toxin
effect on right blepharism (eyelid) [1]: extremely effective
effect on generalized myalgia [2]: no effect
